Results published in US11390894B2, “Biological processes for the production of aryl sulfates” (CysBio ApS, priority 2014, dated 2022).

Key:
SULT1A1 from rat = target: T1, SULT1A1 from rat (Rattus norvegicus, UniProt P17988); assay: Sulfation of phenolic compounds in vivo by E. coli strain expressing sulfotransferase; type: cell-based; settings: M9, 1 mM IPTG, overnight 37° C.; start concentration per compound 61-287 μM
T1 construct: 1, 3, 4, 5, and 6 were cloned amplified from liver tissue cDNA (Zyagen) by PCR; expressed in transfected cells; host or cells: E. coli BL21(DE3)pLysS, plasmid pETDuet-1
Experimental: (§1) The concentration of p-courmaric acid (pHCA) and zosteric acid in the supernatant was quantified by high performance (HPLC) and compared to chemical standards. HPLC was done on a Thermo setup using a HS-F5 column and mobile phases: 5 mM ammonium formate pH 4.0 (A) and acetonitrile (B) at 1.5 mL min-1, using a gradient elution starting at 5% B. From 0.5 min after injection to 7 min, the fraction of B increased linearly from 5% to 60%, and between 9.5 min and 9.6 the fraction of B decreased back to 5%, and remaining there until 12 min. pHCA and zosteric acid were quantified by measuring absorbance at 277 nm.
(§2) To further test the range of substrates that can be sulfated, we used strains carrying plasmids expressing SULT1A1 from rat (Rattus norvegicus) and SULT1E1 from chicken (Gallus gallus domesticus) (Example 1) cloned into the expression vector pETDuet-1, and cysDNCQ from E. coli cloned into expression vector pRSFDuet-1 (Example 2). The plasmids were introduced into the E. coli expression strain BL21(DE3)pLysS as described previously, selecting for transformants with appropriate antibiotics, namely 34 μg mL^1 chloramphenicol for pLysS, 100 μg mL^−1 ampicillin for pETDuet-1-based vectors, and 100 μg mL^−1 kanamycin for pRSFDuet-1-based vectors. […] A control strain without a sulfotransferase gene or cysDNCQ operon was also examined.
(§3) The strains were precultured in 2×YT medium with appropriate antibiotics. 10 μL of these precultures were used to inoculate M9 media with 1 mM IPTG and none or a single substrate for sulfation. After overnight growth at 37° C., 300 rpm the supernatants were withdrawn and examined by HPLC as described in Example 1. The compounds were detected by UV absorbance.

SULT1E1 from chicken = assay: as above; type: cell-based, Gallus gallus domesticus; settings: M9, 1 mM IPTG, overnight 37° C.; start concentration per compound 61-287 μM
Experimental: as §1, §2, §3

SULT1A1 rat + CysDNCQ = target: T2, SULT1A1 rat + CysDNCQ (Rattus norvegicus, UniProt P17988); assay: Sulfation of phenolic compounds in vivo by E. coli strain expressing sulfotransferase with cysDNCQ; type: cell-based; settings: M9, 1 mM IPTG, overnight 37° C.; start concentration per compound 61-287 μM
T2 construct: 1, 3, 4, 5, and 6 were cloned amplified from liver tissue cDNA (Zyagen) by PCR; expressed in transfected cells; host or cells: E. coli BL21(DE3)pLysS with pETDuet-1 (SULT1A1) and pRSFDuet-1 (cysDNCQ)
Experimental: as §1, §2, §3

E. coli MG1655 = assay: Toxicity of unsulfated or sulfated product: growth rates of E. coli; type: cell-based; settings: M9 0.2% glucose, pH 7, 37° C.; 10-40 mM pHCA or 20 or 40 mM zosteric acid
Excerpt: All media preparations had been adjusted to pH 7. […] Filled squares represent growth rates in media with pHCA.

T2 sequence (P17988 whole entry): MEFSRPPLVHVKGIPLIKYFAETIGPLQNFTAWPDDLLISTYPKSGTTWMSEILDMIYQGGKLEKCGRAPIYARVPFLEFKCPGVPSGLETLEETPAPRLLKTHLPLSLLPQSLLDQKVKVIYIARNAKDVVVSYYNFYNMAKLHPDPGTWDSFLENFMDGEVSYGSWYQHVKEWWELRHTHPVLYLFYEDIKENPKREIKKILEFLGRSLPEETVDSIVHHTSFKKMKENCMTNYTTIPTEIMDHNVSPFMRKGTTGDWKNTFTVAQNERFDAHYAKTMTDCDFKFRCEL
T1 sequence (P17988 whole entry): as above

| Compound | percent reduction in concentration compared to the control strain, SULT1A1 (SULT1A1 from rat) [%] | percent reduction in concentration compared to the control strain, SULT1E1 (SULT1E1 from chicken) [%] | percent reduction in concentration compared to the control strain, SULT1A1 + CysDNCQ (SULT1A1 rat + CysDNCQ) [%] | toxicity to the cells (growth rates in exponential growth phase, FIG. 5) (E. coli MG1655) |
| --- | --- | --- | --- | --- |
| O=C(O)CCc1ccc(O)cc1 [3-(4-Hydroxyphenyl) propionic acid] | 3 | 1 | 7 |  |
| O=C(O)C(=O)Cc1ccc(O)cc1 [4-Hydroxyphenyl pyruvic acid] | 47 | 100 | 64 |  |
| CC(=O)Nc1ccc(O)cc1 [4-acetamidophenol, reference compound] | 24 | 10 | 30 |  |
| O=C(O)c1ccc(O)cc1 [4-hydroxybenzoic acid] | 5 | 4 | 6 |  |
| O=c1cc(-c2ccc(O)cc2)oc2cc(O)cc(O)c12 [Apigenin] | 41 | 98 | 99 |  |
| COc1cc(/C=C/C(=O)O)ccc1O [Ferulic acid] | 72 | 67 | 100 |  |
| O=c1cc(-c2ccc(O)c(O)c2)oc2cc(O)cc(O)c12 [Luteolin] | 27 | 0 | 37 |  |
| O=c1c(O)c(-c2ccc(O)c(O)c2)oc2cc(O)cc(O)c12 [Quercetin] | 75 | 74 | 81 |  |
| COc1cc(C(=O)O)ccc1O [Vanillic acid] | 33 | 0 | 39 |  |
| O=c1c(O)c(-c2ccc(O)c(O)c2)oc2cc(O)ccc12 [fisetin] | 98 | 98 | 100 |  |
| O=C(O)/C=C/c1ccc(O)cc1 [pHCA, p-coumaric acid] |  |  |  | toxic to the cells |
